This is an account of results in ChEMBL document CHEMBL3044627, “Residual and sublethal effects of fenpyroximate and pyridaben on the instantaneous rate of increase of Tetranychus urticae” (Crop Prot, 2006).

SMILES strings stand for the structures. The source made the active and inactive calls. The calls are words filed in the database; no cut-off is given here.

Holding throughout (format): functional, organism-based
The test system of assay [1] is Tetranychus urticae. Nature of the assay: Acaricidal activity against Tetranychus urticae (two-spotted spider mite) infested kidney bean leaves assessed as decrease in reproduction of survivors applied as spray after 5 days.
Assay [2] has as its system Tetranychus urticae. As to the kind of experiment: Acaricidal activity against Tetranychus urticae (two-spotted spider mite) infested kidney bean leaves assessed as decrease in immature production at 2101 ppm applied as spray after 3 to 6 days.
Assay [3] deals with Tetranychus urticae. Nature of the assay: Acaricidal activity against Tetranychus urticae (two-spotted spider mite) infested kidney bean leaves assessed as decrease in reproduction of survivors applied as spray after 1 day.
For assay [4], the system named is Tetranychus urticae. Nature of the assay: Acaricidal activity against Tetranychus urticae (two-spotted spider mite) infested kidney bean leaves assessed as decrease in reproduction of survivors applied as spray after 7 days.
In assay [5] the test system is Tetranychus urticae. As to the kind of experiment: Acaricidal activity against Tetranychus urticae (two-spotted spider mite) infested kidney bean leaves assessed as decrease in reproduction of survivors applied as spray after 3 days.
Assay [6] concerns Tetranychus urticae. As to the kind of experiment: Acaricidal activity against Tetranychus urticae (two-spotted spider mite) infested kidney bean leaves assessed as decrease in egg production applied as spray after 3 to 6 days.
Assay [7] has as its system Tetranychus urticae. Nature of the assay: Acaricidal activity against Tetranychus urticae (two-spotted spider mite) infested kidney bean leaves assessed as decrease in reproduction of survivors applied as spray after 9 days.
Assay [8] relates to Tetranychus urticae. Nature of the assay: Acaricidal activity against Tetranychus urticae (two-spotted spider mite) infested kidney bean leaves assessed as decrease in survival at 2101.3 to 20446.5 ppm applied as spray after 3 days relative to control.
Assay [9] deals with Tetranychus urticae. As to the kind of experiment: Acaricidal activity against Tetranychus urticae (two-spotted spider mite) infested kidney bean leaves assessed as decrease in survivors of progeny applied as spray after 7 days.
Assay [10] relates to Tetranychus urticae. As to the kind of experiment: Acaricidal activity against Tetranychus urticae (two-spotted spider mite) infested kidney bean leaves assessed as decrease in survival at 6.4 to 46.6 ppm applied as spray after 7 to 9 days relative to control.
The subject of assay [11] is Tetranychus urticae. As to the kind of experiment: Acaricidal activity against Tetranychus urticae (two-spotted spider mite) infested kidney bean leaves assessed as decrease in immature production at 6.4 to 46.6 ppm applied as spray after 3 to 6 days.
The test system of assay [12] is Tetranychus urticae. As to the kind of experiment: Acaricidal activity against Tetranychus urticae (two-spotted spider mite) infested kidney bean leaves assessed as decrease in survival at 6.4 to 46.6 ppm applied as spray up to 5 days relative to control.
In assay [13] the test system is Tetranychus urticae. Nature of the assay: Acaricidal activity against Tetranychus urticae (two-spotted spider mite) infested kidney bean leaves assessed as decrease in survivors of progeny applied as spray after 9 days.
The test system of assay [14] is Tetranychus urticae. Nature of the assay: Acaricidal activity against Tetranychus urticae (two-spotted spider mite) infested kidney bean leaves assessed as decrease in survivors of progeny applied as spray after 3 days.
Assay [15] deals with Tetranychus urticae. Nature of the assay: Acaricidal activity against Tetranychus urticae (two-spotted spider mite) infested kidney bean leaves assessed as decrease in survivors of progeny applied as spray after 5 days.
The test system of assay [16] is Tetranychus urticae. Nature of the assay: Acaricidal activity against Tetranychus urticae (two-spotted spider mite) infested kidney bean leaves assessed as decrease in survivors of progeny applied as spray after 1 day.

With `CC(C)(C)c1ccc(CSc2cnn(C(C)(C)C)c(=O)c2Cl)cc1` [PYRIDABEN], the EC50 worked out at 19439.6 ppm in [1]; 9118.1 ppm in [3]; 19425.1 ppm in [4]; 19162.1 ppm in assay [5]; 49880.7 ppm in assay [7]. In addition, the outcome in assay [2] was Active. Further, the Activity result in assay [6] is “Dose-dependent effect”. In addition, the outcome in assay [8] was inactive.
As for `Cc1nn(C)c(Oc2ccccc2)c1/C=N/OCc1ccc(C(=O)OC(C)(C)C)cc1` [FENPYROXYMATE], the EC50 in assay [1] is reported as 130.8 ppm; in assay [3], 114.6 ppm; in [9], 70.1 ppm; in assay [4], 124 ppm; in assay [5] it was 131.1 ppm; in assay [13], 104 ppm. In addition, the EC50 in assay [14] turned out to be 99 ppm; in [7], 253.7 ppm; in [15] it was 72.7 ppm; in assay [16], 116.2 ppm. Also, the outcome in [10] was inactive. The outcome in [11] and in assay [12] was Active.
